Key:
[1] = molecular target: T1, human liver cathepsin B (Homo sapiens, UniProt P07858); assay: Specificity assay, cathepsin B; format: biochemical; conditions: assay interference at higher concentrations
T1 construct: purchased Sigma; host or cells: human liver
Experimental: (§1) The specificities of compounds of the present invention were determined against a variety of serine proteases: human neutrophil elastase (HNE), porcine pancreatic elastase (PPE) and human pancreatic chymotrypsin and one cysteine protease: human liver cathepsin B. In all cases a 96-well plate format protocol using colorimetric p-nitroaniline (pNA) substrate specific for each enzyme was used as described previously (PCT Patent Application No. WO 00/09543) with some modifications to the serine protease assays. All enzymes were purchased from Sigma while the substrates were from Bachem.
(§2) Each assay included a 2 h enzyme-inhibitor pre-incubation at room temperature followed by addition of substrate and hydrolysis to ˜30% conversion as measured on a Spectramax Pro microplate reader. Compound concentrations varied from 100 to 0.4 μM depending on their potency. […]
(§3) The percentage of inhibition was calculated using the formula: [1−((UVinh−UVblank)/(UVctl−UVblank))]×100 […]

[2] = molecular target: T2, porcine pancreatic elastase (PPE) (Sus scrofa, UniProt P00772); assay: Specificity assay, porcine pancreatic elastase; format: biochemical; conditions: 2 h enzyme-inhibitor pre-incubation
T2 construct: purchased Sigma
T2 sequence (P00772 27-266): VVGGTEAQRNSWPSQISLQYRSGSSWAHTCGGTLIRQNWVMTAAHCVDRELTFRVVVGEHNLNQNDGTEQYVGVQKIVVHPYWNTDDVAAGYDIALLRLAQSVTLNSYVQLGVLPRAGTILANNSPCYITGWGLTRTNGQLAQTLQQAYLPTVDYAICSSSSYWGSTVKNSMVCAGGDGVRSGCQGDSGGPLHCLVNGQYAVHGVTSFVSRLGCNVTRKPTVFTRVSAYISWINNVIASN
Experimental: as §1, §2, §3

[3] = molecular target: T3, NS3/4A protease complex, H77 strain (Hepatitis C virus genotype 1a, UniProt P27958, C1454S/C1711G); assay: Recombinant HCV NS3/4A protease complex FRET peptide assay, H77 strain; format: biochemical, HCV genotype 1a (H77)
T3 construct: DNA encoding the recombinant HCV NS3/4A protease complex (amino acids 1027 to 1711) for these strains; inferred from pET21b vector and Ni-NTA purification; made in house; host or cells: Escherichia coli BL21 (DE3), pET21b
T3 sequence (P27958 1027-1711 C1454S/C1711G, one chain of several): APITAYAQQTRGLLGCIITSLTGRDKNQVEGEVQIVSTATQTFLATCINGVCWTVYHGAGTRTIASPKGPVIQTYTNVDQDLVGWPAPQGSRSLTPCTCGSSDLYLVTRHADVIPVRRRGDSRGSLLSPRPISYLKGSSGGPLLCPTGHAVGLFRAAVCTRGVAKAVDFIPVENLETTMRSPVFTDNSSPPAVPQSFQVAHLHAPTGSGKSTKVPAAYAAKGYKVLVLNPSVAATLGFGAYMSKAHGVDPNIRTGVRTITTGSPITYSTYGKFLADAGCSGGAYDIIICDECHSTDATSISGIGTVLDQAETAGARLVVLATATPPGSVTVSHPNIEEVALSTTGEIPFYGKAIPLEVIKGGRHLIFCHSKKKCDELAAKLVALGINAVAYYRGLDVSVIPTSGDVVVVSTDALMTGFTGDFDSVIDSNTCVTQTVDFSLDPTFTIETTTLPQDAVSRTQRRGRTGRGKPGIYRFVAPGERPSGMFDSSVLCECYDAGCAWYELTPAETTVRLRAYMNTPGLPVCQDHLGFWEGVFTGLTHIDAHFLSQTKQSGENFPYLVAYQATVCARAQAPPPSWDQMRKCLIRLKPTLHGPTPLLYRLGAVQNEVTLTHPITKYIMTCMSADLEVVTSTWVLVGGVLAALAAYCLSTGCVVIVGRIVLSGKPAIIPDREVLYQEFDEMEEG
Source text: The purpose of this in vitro assay was to measure the inhibition of HCV NS3 protease complexes, derived from the BMS strain, H77 strain or J416S strain, as described below, by compounds of the present invention. This assay provides an indication of how effective compounds of the present invention would be in inhibiting HCV proteolytic activity.
Serum from an HCV-infected patient was obtained from Dr. T. Wright, San Francisco Hospital. An engineered full-length cDNA (compliment deoxyribonucleic acid) template of the HCV genome (BMS strain) was constructed from DNA fragments obtained by reverse transcription-PCR (RT-PCR) of serum RNA (ribonucleic acid) and using primers selected on the basis of homology between other genotype 1a strains. From the determination of the entire genome sequence, a genotype 1a was assigned to the HCV isolate according to the classification of Simmonds et al. (See P Simmonds, K A Rose, S Graham, S W Chan, F McOmish, B C Dow, E A Follett, P L Yap and H Marsden, J. Clin. Microbiol., 31(6), 1493–1503 (1993)). […]

Q: What does the source list for `C=CC1C[C@]1(NC(=O)[C@@H]1C[C@@H](Oc2cc(-c3ccccc3)nc3cc(OC)ccc23)CN1C(=O)[C@@H](NC(=O)OC)C(C)(C)C)C(=O)NS(=O)(=O)N(C)Cc1ccccc1` (stereo partly drawn) [Compound 9]?
A: IC50 [1]: > 50 µM; IC50 [2]: > 200 µM; IC50 [3]: 0.062 µM
